The values that follow come from ChEMBL document CHEMBL1144023, “Computer-aided discovery of anti-inflammatory thiazolidinones with dual cyclooxygenase/lipoxygenase inhibition” (J Med Chem, 2008).

In assay [1] the target is T1, Prostaglandin G/H synthase 1 (Ovis aries) (UniProt P05979).
T1 sequence (whole entry): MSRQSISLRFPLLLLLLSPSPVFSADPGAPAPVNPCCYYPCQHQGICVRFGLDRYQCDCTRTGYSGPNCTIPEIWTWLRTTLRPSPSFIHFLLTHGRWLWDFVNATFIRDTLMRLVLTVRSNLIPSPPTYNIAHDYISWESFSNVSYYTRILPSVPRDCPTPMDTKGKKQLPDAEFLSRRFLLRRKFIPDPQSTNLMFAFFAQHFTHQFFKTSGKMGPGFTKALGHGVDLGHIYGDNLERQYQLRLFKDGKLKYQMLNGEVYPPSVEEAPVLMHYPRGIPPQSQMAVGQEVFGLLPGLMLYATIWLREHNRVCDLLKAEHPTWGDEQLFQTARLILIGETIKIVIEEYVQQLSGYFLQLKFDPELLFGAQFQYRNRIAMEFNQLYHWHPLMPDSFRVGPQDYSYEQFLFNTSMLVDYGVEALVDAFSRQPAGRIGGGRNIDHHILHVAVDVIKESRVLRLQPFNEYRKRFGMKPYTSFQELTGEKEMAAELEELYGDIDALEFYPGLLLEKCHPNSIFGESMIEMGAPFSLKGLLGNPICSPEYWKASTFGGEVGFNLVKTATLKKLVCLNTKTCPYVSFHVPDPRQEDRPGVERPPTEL
Kind of assay: Inhibition of sheep COX1 at 200 uM in presence of 1 uM arachidonic acid.

Assay [2] deals with T2, Prostaglandin G/H synthase 2 (Homo sapiens, UniProt P35354).
T2 sequence (P35354 whole entry): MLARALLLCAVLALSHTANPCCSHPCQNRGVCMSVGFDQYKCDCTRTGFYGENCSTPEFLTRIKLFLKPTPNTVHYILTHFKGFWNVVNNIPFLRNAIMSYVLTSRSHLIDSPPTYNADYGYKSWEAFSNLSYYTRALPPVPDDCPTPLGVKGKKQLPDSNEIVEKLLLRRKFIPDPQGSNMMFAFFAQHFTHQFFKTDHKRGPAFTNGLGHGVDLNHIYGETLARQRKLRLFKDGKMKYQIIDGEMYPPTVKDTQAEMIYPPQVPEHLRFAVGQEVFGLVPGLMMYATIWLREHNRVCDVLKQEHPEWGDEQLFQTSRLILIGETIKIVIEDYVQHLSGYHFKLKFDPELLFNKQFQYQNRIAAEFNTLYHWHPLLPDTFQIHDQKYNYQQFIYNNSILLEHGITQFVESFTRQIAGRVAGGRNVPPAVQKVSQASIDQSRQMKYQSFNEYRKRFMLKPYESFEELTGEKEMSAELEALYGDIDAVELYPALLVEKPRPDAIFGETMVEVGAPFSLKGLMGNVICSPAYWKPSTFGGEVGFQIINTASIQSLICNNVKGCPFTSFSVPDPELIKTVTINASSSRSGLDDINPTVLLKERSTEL
Kind of assay: Inhibition of human recombinant COX2.

Assay [3] deals with T3, Prostaglandin G/H synthase 2 (Homo sapiens) (UniProt P35354).
T3 sequence (whole entry): T2 sequence (P35354 whole entry)
In words: Inhibition of human recombinant COX2 at 200 uM.

In the next assay the test system is Mus musculus. Kind of assay: Antiinflammatory activity in AKR mouse assessed as inhibition of carrageenan-induced paw edema at 0.01 mmol/kg. It counts as functional.
Assay [4] deals with T1, Prostaglandin G/H synthase 1 (Ovis aries). Kind of assay: Inhibition of sheep COX1 at 200 uM in presence of 100 uM arachidonic acid.
In assay [5] the target is T4, Seed linoleate 13S-lipoxygenase-1 (Glycine max) (UniProt P08170).
T4 sequence (whole entry): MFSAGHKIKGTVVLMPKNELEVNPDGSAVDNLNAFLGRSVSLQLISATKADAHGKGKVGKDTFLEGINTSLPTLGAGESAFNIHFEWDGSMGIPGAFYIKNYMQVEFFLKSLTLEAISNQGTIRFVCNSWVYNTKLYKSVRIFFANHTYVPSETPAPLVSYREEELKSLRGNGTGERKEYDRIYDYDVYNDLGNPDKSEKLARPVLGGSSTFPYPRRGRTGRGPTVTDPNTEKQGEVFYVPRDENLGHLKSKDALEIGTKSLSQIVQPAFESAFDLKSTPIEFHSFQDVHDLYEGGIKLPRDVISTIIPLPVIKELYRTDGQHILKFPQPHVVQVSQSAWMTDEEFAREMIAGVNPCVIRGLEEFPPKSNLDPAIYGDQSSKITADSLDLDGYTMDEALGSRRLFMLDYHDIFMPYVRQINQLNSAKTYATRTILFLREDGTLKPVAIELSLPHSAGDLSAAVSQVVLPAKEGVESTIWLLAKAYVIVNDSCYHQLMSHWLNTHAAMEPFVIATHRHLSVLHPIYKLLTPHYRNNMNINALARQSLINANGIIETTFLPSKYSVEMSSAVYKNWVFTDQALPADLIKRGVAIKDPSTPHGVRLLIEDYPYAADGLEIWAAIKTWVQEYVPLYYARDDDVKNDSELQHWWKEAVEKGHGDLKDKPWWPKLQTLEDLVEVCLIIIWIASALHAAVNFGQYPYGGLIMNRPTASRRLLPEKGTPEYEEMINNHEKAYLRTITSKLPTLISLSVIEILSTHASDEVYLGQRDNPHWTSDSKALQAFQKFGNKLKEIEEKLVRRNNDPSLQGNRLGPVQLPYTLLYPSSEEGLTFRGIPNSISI
In words: Inhibition of soybean LOX at 100 uM.

Broadly, the inhibition is how much of the control response was suppressed. One may read the IC50 as the concentration needed to halve the response being measured. One may read the inhibition in vivo as the drop in the measured response relative to a control, in per cent.

Molecules are shown by their SMILES. Active and inactive are the calls of the source. The rule behind the calls is not given here.

Take `O=C1N/C(=N\c2nccs2)S/C1=C/c1cccc(Cl)c1`: the inhibition in assay [1] is 90%; in assay [3], 30.4%; in assay [5] it was 12%. The 50% inhibitory concentration (IC50) in assay [2] worked out at 262 µM. For the same compound, in the assay with Mus musculus, the inhibition in vivo at 10 µmol/kg was found to be 44.5%. Further, the outcome in assay [4] was inactive.
For `O=C1CSC(Nc2nccs2)=N1`, the inhibition in assay [1] and in assay [3] was 0% in each case.
With `COc1ccc(/C=C2/S/C(=N/c3nccs3)NC2=O)cc1`, the inhibition in assay [1] was found to be 8%; in assay [3], 2.5%; in assay [5], 22.4%. For the same compound, the inhibition in vivo at 10 µmol/kg in the assay with Mus musculus worked out at 51.1%. Also, the result in assay [4] was inactive.
For `O=C1N/C(=N\c2nccs2)S/C1=C/c1ccc([N+](=O)[O-])cc1`, in that order: 60%, 4.5%, 12.5%, 66.1% and “inactive”.
